Results on two molecules are retold here after patent US20060024350A1, “Biodegradable ocular devices, methods and systems” (priority 2004, published 2006).

For data set [1] the following is noted: 72 hours after injection; cited from earlier work.
The conditions of data set [2]: direct injection, posterior segment; cited from earlier work.
The nature of data set [3]: In vivo elution: HPLC detection of TA in tissues after 4-week subretinal implantation. On the set-up: species or system rabbit. The settings on record: four weeks after the implant, PCL/TA 60:40 subretinal.

The structures appear in SMILES notation. “Also recorded” adds a separate entry of the source.

Regarding `C[C@]12C=CC(=O)C=C1CC[C@H]1[C@@H]3C[C@@H](O)[C@](O)(C(=O)CO)[C@@]3(C)C[C@H](O)[C@@]12F` [triamcinolone], the “triamcinolone present in the vitreous associated with other tissues including retina, pigment epithelium, sclera” value in data set [1] is “less than 1%”. In data set [2], the “adverse or undesirable side effects observed” value is “elevations in intraocular pressure and the formation of, or acceleration of the development of cataracts”.
`CC1(C)O[C@@H]2C[C@H]3[C@@H]4CCC5=CC(=O)C=C[C@]5(C)[C@@]4(F)[C@@H](O)C[C@]3(C)[C@]2(C(=O)CO)O1` [TA, Triamcinolone acetonide]: in data set [3], the “TA detection in anterior structures or blood (HPLC)” value is on record as “not detected” and the “TA detection in posterior tissue samples (HPLC)” value is reported as “confirmed the presence; also recorded: localized to the posterior eye segment”.
